# Assay results as given in patent US5036081A, “Calcium absorption promoter” (Takeda Chemical Industries, Ltd., priority 1988, dated 1991).
# Assays:
# [1] = tested on: bone resorption (antebrachial bones, radius and ulna, of a fetus); test: tissue or blood; type: cell-based, Sprague-Dawley rat; conditions: for ^45 Ca released into medium: 2 days, mean ± S.D. (n = 5)
# Protocol: Effect of N-(1,3-dihydroxy-2-propyl)valiolamine and 1,25(OH)2 vitamin D3 on bone resorption
# The bone resorption rate was determined by the method of Raisz (J. Clin. Invest. 44, 103-116, 1965). Thus, one Sprague-Dawley rat on day 18 of gestation was subcutaneously dosed with 50 μCi of ^45 Ca (an isotope of calcium, in CaCl2) and laparotomy was performed on the next day. The fetuses were aseptically taken out and under a dissecting microscope, the bilateral antebrachial bones (radius and ulna) of a fetus were cut off from the trunk. The connective tissues and cartilages were removed as much as possible to prepare a sample for bone culture. Each piece of bone was cultured in 0.6 ml of BGJb medium (Fitton-Jackson modification, GIBCO Laboratories, U.S.A., supplemented with 2 mg/ml of bovine serum albumin) at 37° C. for 24 hours and after addition of AO-128 at a final concentration of 10 μg/ml or 1,25(OH)2 vitamin D3 at a concentration of 0.8 pg/ml, was further incubated in the same medium for 2 days. The ^45 Ca radioactivity in the medium and that in the bone were respectively counted and the rate (%) of ^45 Ca release from the bone into the medium was calculated by means of the following equation. [formula]
# The bones from another fetus of the same litter were incubated without addition of the test compounds for 2 days as controls. The means±S.D. of values found from 5 pieces of bone in each group was calculated and the percentage (%) of the mean value relative to the mean value of the control group was calculated.
# [2] = Exogenous calcium absorption promoting effect in rats (oral sucrose + calcium carbonate load, 24 hr urinary calcium); type: in vivo, male rats (Jcl: SD); conditions: for Urinary calcium: sucrose 2.5 g/kg, calcium carbonate 400 mg/kg, 24 hr urine, mean ± S.D.
# Protocol: Exogenous calcium absorption promoting effect of N-(1,3-dihydroxy-2-propyl)valiolamine in rats
# Eight-week-old male rats (Jcl: SD) fasted for 20 hours were orally dosed with 72.5% sucrose aqueous solution [2.5 g (sucrose)/kg (body weight)], 5% calcium carbonate aqueous suspension [400 mg (CaCO3)/kg (body weight)] and 0.015, 0.05 or 0.15% aqueous AO-128 solution [0.3, 1.0 or 3.0 mg ((AO-128)/kg (body weight)] and the 24 hr urine was collected for the determination of urinary calcium. The animals were deprived of food during urine collection but had free access to water. The results are shown in Table 2.
# [3] = Dietary calcium absorption promoting effect in rats (medicated diet; body weight, food consumption, urinary and plasma calcium); type: in vivo, male rats (Jcl: SD); conditions: for Body weight / Plasma calcium / Food consumption / Urinary calcium: mean ± S.D., n=6; for Urinary calcium: ** = 1% level of significance vs control
# Text: Dietary calcium absorption promoting effect of N-(1,3-dihydroxy-2-propyl)valiolamine in rats
# Five-week-old male rats (Jcl: SD) were divided into 2 groups and one group (control group) was given a regular diet (CE-2. Japan Clea Co.) while the other group was put on a medicated diet, i.e. CE-2 supplemented with N-(1,3-dihydroxy-2-propyl)valiolamine (AO-128). The level of addition of AO-128 was 10 ppm during the first 10 days and 25 ppm during the subsequent 7 days. On days 3, 10 and 17 of feeding, the body weight, food consumption, urinary calcium excretion, and plasma calcium concentration were determined.
# [4] = Acute oral toxicity in rats; conditions: rat, in vivo, rats (Wistar)
# [5] = Acute oral toxicity in mice; conditions: mouse, in vivo, mice (NRMI)
# [6] = Day 17, 10 ppm first 10 days then 25 ppm 7 days in diet
compound,measurement,setting,value
"C=C1/C(=C\C=C2/CCC[C@]3(C)[C@@H]([C@H](C)CCCC(C)(C)O)CC[C@@H]23)C[C@@H](O)C[C@@H]1O [1,25(OH)2 vitamin D3, reference compound]",^45 Ca released into medium,"[1]; 0.8 pg/ml, control 12.3 ± 2.2, *p < 0.001",26.6 ± 2.2%
same,fold induction at 800 fg/mL,"[1]; Rattus norvegicus, 48 h, read-out: increase in the release of ^45 Ca into the medium",2.2
"OCC(CO)N[C@H]1C[C@](O)(CO)[C@@H](O)[C@H](O)[C@H]1O [AO-128, N-(1,3-dihydroxy-2-propyl)valiolamine]",Urinary calcium,"[2]; AO-128 0.3 mg/kg oral, n=7",311 ± 214 µg/day
same,Urinary calcium,"[2]; AO-128 1.0 mg/kg oral, n=6, * = 2% level of significance vs control",441 ± 172 µg/day
same,Urinary calcium,"[2]; AO-128 3.0 mg/kg oral, n=6, ** = 1% level of significance vs control",517 ± 195 µg/day
same,absorption of calcium (in words),"[2]; administered concurrently with a carbohydrate and calcium, based on the two experiments",increases the absorption of calcium
same,urinary calcium (in words),[2]; concurrent with calcium carbonate and sucrose,dose-dependent increase
same,body weight gain (in words),"[3]; AO-128 group, diet 10 then 25 ppm",a tendency of suppressed body weight gain
same,Body weight,"[3]; Day 3, 10 ppm in diet",143 ± 7 g
same,Plasma calcium,"[3]; Day 3, 10 ppm in diet",10.8 ± 0.5 mg/dL
same,Food consumption,"[3]; Day 3, 10 ppm in diet, * = 5% level of significance vs control",12.7 ± 1.7 g/day
same,Urinary calcium,"[3]; Day 3, 10 ppm in diet",1.99 ± 0.67 mg/day
same,Body weight,"[3]; Day 10, 10 ppm in diet",176 ± 8 g
same,Food consumption,"[3]; Day 10, 10 ppm in diet",22.7 ± 2.3 g/day
same,Plasma calcium,"[3]; Day 10, 10 ppm in diet",10.3 ± 0.5 mg/dL
same,Urinary calcium,"[3]; Day 10, 10 ppm in diet",2.10 ± 0.54 mg/day
same,Body weight,[3]; [6],250 ± 14 g
same,Food consumption,[3]; [6],24.5 ± 2.0 g/day
same,Plasma calcium,[3]; [6],9.9 ± 0.3 mg/dL
same,urinary calcium excretion (in words),[3]; all determination days,increases
same,food consumption (in words),[3]; day 3,slight decrease on day 3
same,food consumption (in words),[3]; day 10,recovery on day 10
same,food consumption (in words),[3]; day 17,a tendency of increase in day 17
same,plasma calcium concentration (in words),"[3]; days 3, 10 and 17",no significant change
same,LD50,[4],~20000 mg/kg
same,LD50,[5],14700 to 21500 mg/kg
same,effect on bone resorption (in words),[1]; 10 μg/ml,no change
same,^45 Ca released into medium,"[1]; 10 μg/ml, control 12.7 ± 3.2",12.6 ± 2.5%
